Test results from US6706664B1, “Benzoxazole compounds, process for the preparation thereof and herbicides” (UBE Industries, Ltd., priority 1999, dated 2004).

What was measured:
Experiment in all cases: Soil treatment test for upland field
Parameters in all cases: key: 0: normal development; 1: Less damaged; 2: Slightly damaged; 3: Moderately damaged; 4: Severely damaged; 5: All killed
Conditions in all cases: 500 g/ha, glass house 25° C., 3 weeks
livid amaranth = format: in vivo, Amaranthus lividus
From the text: (§1) (0: normal development, 1: Less damaged, 2: Slightly damaged, 3: Moderately damaged, 4: Severely damaged, 5: All killed).
(§2) Wagner pots, each having an area of 1/5000 are, were packed with Ube soil (alluvial soil), and then each seed of corn, soybean, cotton, wheat, solgum, sugar beat, Large crabgrass, barnyardgrass, green foxtail, blackgrass, annual bluegrass, common lambsquartes, livid amaranth and velvetleaf were planted and covered with soil.
(§3) Each wettable powder of the desired compounds (I) shown in Table 1 prepared in accordance with Example 2 was diluted with water containing a surfactant (0.05%) and uniformly sprayed on the surface of each soil so that an effective concentration of the compound (I) in each herbicide became 500 g/ha. These plants were controlled in a glass house at an average temperature of 25° C. for 3 weeks, and then herbicidal effects thereof were investigated.
(§4) The herbicidal effects were evaluated according to the evaluation method described in the above (1).

common lambsquartes = format: in vivo, Chenopodium album
From the text: as §1, §2, §3, §4

corn = format: in vivo
From the text: as §1, §2, §3, §4

soybean = format: in vivo
From the text: as §1, §2, §3, §4

sugar beat = format: in vivo
From the text: as §1, §2, §3, §4

solgum = format: in vivo
From the text: as §1, §2, §3, §4

cotton = format: in vivo
From the text: as §1, §2, §3, §4

wheat = format: in vivo
From the text: as §1, §2, §3, §4

barnyardgrass = format: in vivo, Echinochloa crusgalli
From the text: as §1, §2, §3, §4

annual bluegrass = format: in vivo, Poa annua
From the text: as §1, §2, §3, §4

Large crabgrass = format: in vivo, Digitaria adscendens
From the text: as §1, §2, §3, §4

green foxtail = format: in vivo, Setaria viridis
From the text: as §1, §2, §3, §4

velvetleaf = format: in vivo, Abutilon theophrasti
From the text: as §1, §2, §3, §4

blackgrass = format: in vivo, Alopecurus aegualis
From the text: as §1, §2, §3, §4

Row | SMILES | Effects Livid amaranth (livid amaranth) | Effects Common lambsquarters (common lambsquartes) | Effects Corn (corn) | Effects Soybean (soybean) | Effects Sugar beat (sugar beat) | Effects Solgum (solgum) | Effects Cotton (cotton) | Effects Wheat (wheat) | Effects Barnyardgrass (barnyardgrass) | Effects Annual bluegrass (annual bluegrass) | Effects Large crabgrass (Large crabgrass) | Effects Green foxtail (green foxtail) | Effects Velvetleaf (velvetleaf) | Effects Blackgrass (blackgrass)
1 | CCC(Oc1ccc(F)c(C(F)(F)F)c1)c1nc2cc(S(C)(=O)=O)c(C)cc2o1 (stereo not drawn) [Compound 487] | 5 | 4 | 0 | 0 | 5 | 0 | 0 | 0 | 2 | 4 | 5 | 3 | 3 | 
2 | CCC(Oc1ccc(Cl)c(C#N)c1)c1nc2cc(S(C)(=O)=O)ccc2o1 (stereo not drawn) [Compound 509] | 5 | 5 | 0 | 0 | 5 | 0 | 0 | 0 |  |  | 2 | 3 | 3 | 
3 | CCCC(Oc1cccc(C#N)c1)c1nc2cc(Cl)c(C)cc2o1 (stereo not drawn) [Compound 484] | 5 | 5 | 1 | 0 | 5 | 0 | 0 | 0 |  | 5 | 5 | 5 | 5 | 
4 | CCCC(Oc1cccc(C#N)c1)c1nc2cc(S(C)(=O)=O)ccc2o1 (stereo not drawn) [Compound 508] | 5 | 3 | 0 | 0 | 4 | 0 | 0 | 0 |  | 2 | 4 | 5 | 3 | 
5 | CCC(Oc1ccc(F)c(C(F)(F)F)c1)c1nc2ccc([N+](=O)[O-])cc2o1 (stereo not drawn) [Compound 39] | 5 | 3 | 0 | 0 | 2 | 0 | 1 | 0 |  | 4 | 4 | 4 |  | 
6 | CCC(Oc1cccc(C(F)(F)F)c1)c1nc2cc(I)ccc2o1 (stereo not drawn) [Compound 172] | 5 |  | 0 | 0 | 0 | 0 | 0 | 0 |  | 3 | 5 | 5 |  | 1
7 | CCC(Oc1ccc(F)c(C(F)(F)F)c1)c1nc2cc(Cl)c([N+](=O)[O-])cc2o1 (stereo not drawn) [Compound 334, 1-(5-chloro-6-nitrobenzoxazol-2-yl)-1-(4-fluoro-3-(trifluoromethyl)phenoxy)propane] | 5 | 2 | 0 | 0 | 3 | 1 | 1 | 2 | 3 | 4 | 5 | 5 |  | 4
8 | CCC(Oc1cccc(C(F)(F)F)c1)c1nc2cc(S(C)(=O)=O)ccc2o1 (stereo not drawn) [Compound 216] | 5 | 5 | 0 | 0 | 5 | 0 | 0 | 0 | 3 | 2 | 4 | 5 | 3 | 
9 | CCC(Oc1cccc(C(F)(F)F)c1)c1nc2ccc(C(F)(F)F)cc2o1 (stereo not drawn) [Compound 94] | 5 | 1 | 0 | 0 | 2 | 0 |  | 0 | 3 | 1 | 5 | 4 | 0 | 
10 | CCC(Oc1cccc(C#N)c1)c1nc2cc(S(C)(=O)=O)ccc2o1 (stereo not drawn) [Compound 507] | 5 | 5 | 0 | 0 | 0 | 0 | 0 | 0 |  |  |  | 3 |  | 
11 | CCC(Oc1cccc(C#N)c1)c1nc2cc(Cl)c(C)cc2o1 (stereo not drawn) [Compound 481] | 4 | 2 | 0 | 0 | 3 | 0 | 0 | 0 |  | 2 | 5 | 4 | 3 | 
12 | CCC(Oc1ccc(F)c(C(F)(F)F)c1)c1nc2cc(S(C)(=O)=O)ccc2o1 (stereo not drawn) [Compound 215] | 5 | 4 | 0 | 0 | 5 | 0 | 1 | 0 |  | 3 | 5 | 4 | 5 | 
